ChEMBL document CHEMBL1132520, “Antimalarial activity of 3-hydroxyalkyl-2-methylene-propionic acid derivatives” (1999)
Active and inactive are the calls of the source. No cut-off for these calls is given here.

Assays:
[1] = test system: Mus musculus; assay: In vivo anti-malarial activity against Plasmodium berghei in mice (Mus musculus) at a dose of 160 mg/kg; Active; format: functional, organism-based; parameters: dose 160 mg/kg
[2] = test system: Mus musculus; assay: Antimalarial activity against Plasmodium berghei evaluated in terms of mean survival time for mice (Mus musculus) at a dose of 160 mg/kg; format: functional
[3] = test system: Mus musculus; assay: Anti-malarial activity against Plasmodium berghei evaluated in terms of mean survival time for mice (Mus musculus) at a dose of 20 mg/kg; format: functional
[4] = test system: Mus musculus; assay: Antimalarial activity against Plasmodium berghei evaluated in terms of mean survival time for mice (Mus musculus) at a dose of 40 mg/kg; format: functional
[5] = test system: Mus musculus; assay: Antimalarial activity against Plasmodium berghei evaluated in terms of mean survival time for mice (Mus musculus) at a dose of 80 mg/kg; format: functional
[6] = test system: Plasmodium falciparum; assay: In vitro inhibition of chloroquine-resistant Plasmodium falciparum at 0.25 uM/well dose at 72 hrs in total parasite growth assay; format: functional
[7] = test system: Plasmodium falciparum; assay: In vitro inhibition of chloroquine-resistant Plasmodium falciparum at 0.5 uM/well dose at 72 hrs in total parasite growth assay; format: functional
[8] = test system: Plasmodium falciparum; assay: In vitro antimalarial activity for Plasmodium falciparum at 100 uM/well dose at 24 hrs in Schizont maturation assay; format: functional
[9] = test system: Plasmodium falciparum; assay: In vitro antimalarial activity for Plasmodium falciparum at 10 uM/well dose at 24 hrs in Schizont maturation assay; format: functional
[10] = test system: Plasmodium falciparum; assay: In vitro antimalarial activity for Plasmodium falciparum at 1 uM/well dose at 24 hrs in Schizont maturation assay; format: functional
[11] = test system: Plasmodium falciparum; assay: In vitro antimalarial activity for Plasmodium falciparum at 2.5 uM/well dose at 24 hrs in Schizont maturation assay; format: functional
[12] = test system: Plasmodium falciparum; assay: In vitro antimalarial activity for Plasmodium falciparum at 20 uM/well dose at 24 hrs in Schizont maturation assay; format: functional
[13] = test system: Plasmodium falciparum; assay: In vitro antimalarial activity for chloroquine-resistant Plasmodium falciparum at 50 uM/well dose at 24 hrs in Schizont maturation assay; format: functional
[14] = test system: Plasmodium falciparum; assay: In vitro antimalarial activity for chloroquine-resistant Plasmodium falciparum at 5 uM/well dose at 24 hrs in Schizont maturation assay; format: functional
[15] = test system: Plasmodium falciparum; assay: In vitro antimalarial activity for Plasmodium falciparum at 500 uM/well dose at 24 hrs in Schizont maturation assay; format: functional
[16] = test system: Plasmodium falciparum; assay: In vitro antimalarial activity for Plasmodium falciparum at 50 uM/well dose at 24 hrs in Schizont maturation assay; format: functional
[17] = test system: Plasmodium falciparum; assay: In vitro antimalarial activity for Plasmodium falciparum at 5 uM/well dose at 24 hrs in Schizont maturation assay; format: functional
[18] = test system: Plasmodium falciparum; assay: In vitro antimalarial activity for chloroquine-resistant Plasmodium falciparum at 0.25 uM/well dose at 24 hrs in Schizont maturation assay; format: functional
[19] = test system: Plasmodium falciparum; assay: In vitro antimalarial activity for chloroquine-resistant Plasmodium falciparum at 100 uM/well dose at 24 hrs in Schizont maturation assay; format: functional
[20] = test system: Plasmodium falciparum; assay: In vitro antimalarial activity for chloroquine-resistant Plasmodium falciparum at 10 uM/well dose at 24 hrs in Schizont maturation assay; format: functional
[21] = test system: Plasmodium falciparum; assay: In vitro antimalarial activity for chloroquine-resistant Plasmodium falciparum at 1 uM/well dose at 24 hrs in Schizont maturation assay; format: functional
[22] = test system: Plasmodium falciparum; assay: In vitro antimalarial activity for chloroquine-resistant Plasmodium falciparum at 2.5 uM/well dose at 24 hrs in Schizont maturation assay; format: functional
[23] = test system: Plasmodium falciparum; assay: In vitro antimalarial activity for chloroquine-resistant Plasmodium falciparum at 20 uM/well dose at 24 hrs in Schizont maturation assay; format: functional
[24] = test system: Plasmodium falciparum; assay: In vitro inhibition of Plasmodium falciparum at 50 uM/well dose at 72 hrs in total parasite growth assay; format: functional
[25] = test system: Plasmodium falciparum; assay: In vitro inhibition of Plasmodium falciparum at 5 uM/well dose at 72 hrs in total parasite growth assay; format: functional
[26] = test system: Plasmodium falciparum; assay: In vitro inhibition of Plasmodium falciparum at 0.25 uM/well dose at 72 hrs in total parasite growth assay; format: functional
[27] = test system: Plasmodium falciparum; assay: In vitro inhibition of Plasmodium falciparum at 0.5 uM/well dose at 72 hrs in total parasite growth assay; format: functional
[28] = test system: Plasmodium falciparum; assay: In vitro inhibition of Plasmodium falciparum at 2.5 uM/well dose at 72 hrs in total parasite growth assay; format: functional
[29] = test system: Plasmodium falciparum; assay: In vitro inhibition of Plasmodium falciparum at 20 uM/well dose at 72 hrs in total parasite growth assay; format: functional
[30] = test system: Plasmodium falciparum; assay: In vitro inhibition of Plasmodium falciparum at 25 uM/well dose at 72 hrs in total parasite growth assay; format: functional
[31] = test system: Plasmodium falciparum; assay: In vitro inhibition of Plasmodium falciparum at 1.0 uM/well dose at 72 hrs in total parasite growth assay; format: functional
[32] = test system: Plasmodium falciparum; assay: In vitro inhibition of Plasmodium falciparum at 100 uM/well dose at 72 hrs in total parasite growth assay; format: functional
[33] = test system: Plasmodium falciparum; assay: In vitro inhibition of Plasmodium falciparum at 10 uM/well dose at 72 hrs in total parasite growth assay; format: functional
[34] = test system: Plasmodium falciparum; assay: In vitro antimalarial activity for Plasmodium falciparum at 0.50 uM/well dose at 24 hrs in Schizont maturation assay; format: functional
[35] = test system: Plasmodium falciparum; assay: In vitro inhibition of chloroquine-resistant Plasmodium falciparum at 1.0 uM/well dose at 72 hrs in total parasite growth assay; format: functional
[36] = test system: Plasmodium falciparum; assay: In vitro antimalarial activity for Plasmodium falciparum at 0.10 uM/well dose at 24 hrs in Schizont maturation assay; format: functional
[37] = test system: Plasmodium falciparum; assay: In vitro antimalarial activity for chloroquine-resistant Plasmodium falciparum at 0.10 uM/well dose at 24 hrs in Schizont maturation assay; format: functional
[38] = test system: Plasmodium falciparum; assay: In vitro antimalarial activity for Plasmodium falciparum at 0.25 uM/well dose at 24 hrs in Schizont maturation assay; format: functional
[39] = test system: Plasmodium falciparum; assay: In vitro antimalarial activity for chloroquine-resistant Plasmodium falciparum at 0.5 uM/well dose at 24 hrs in Schizont maturation assay; format: functional
[40] = test system: Mus musculus; assay: In vivo antimalarial activity against Plasmodium berghei in mice (Mus musculus); Inactive; format: functional, organism-based
[41] = test system: Plasmodium falciparum; assay: In vitro inhibition of Plasmodium falciparum at 20 uM/well dose at 72 hrs in total parasite growth assay; Not determined; format: functional
[42] = test system: Mus musculus; assay: In vivo anti-malarial activity against Plasmodium berghei in mice (Mus musculus) at a dose of 80 mg/kg; Active; format: functional, organism-based; parameters: dose 80 mg/kg

Compound	Mean survival time [2] [days]	Mean survival time [3] [days]	Mean survival time [4] [days]	Mean survival time [5] [days]	inhibition at 100 µM [8] [%]	inhibition at 10 µM [9] [%]	inhibition at 1 µM [10] [%]	inhibition at 2.5 µM [11] [%]	inhibition at 50 µM [16] [%]	inhibition at 5 µM [17] [%]	PGI [25] [%]	PGI [26] [%]	PGI [27] [%]	PGI [28] [%]	PGI [31] [%]	PGI [32] [%]	PGI [33] [%]	inhibition at 0.5 µM [34] [%]	inhibition at 0.1 µM [36] [%]	inhibition at 0.25 µM [38] [%]	other results
C=C(C#N)C(O)c1cc(OC)c(OC)c(OC)c1 (configuration not stated)	12.4	6	7.6	10.4	100	100	64	76.5	100	82.4	100	73	86	100	94	100	100	42.4	0	30	Activity [1]: Active; PGI [6]: 70%; PGI [7]: 81%; inhibition at 20 µM [12]: 100%; inhibition at 50 µM [13]: 100%; inhibition at 5 µM [14]: 81%; inhibition at 500 µM [15]: 100%; inhibition at 0.25 µM [18]: 30%; inhibition at 100 µM [19]: 100%; inhibition at 10 µM [20]: 100%; inhibition at 1 µM [21]: 65%; inhibition at 2.5 µM [22]: 69%; inhibition at 20 µM [23]: 100%; PGI [24]: 100%; PGI [29]: 100%; PGI [30]: 100%; PGI [35]: 90%; inhibition at 0.1 µM [37]: 4.2%; inhibition at 0.5 µM [39]: 48.6%
C=C(C#N)C(OCCC#N)c1ccc2c(c1)OCO2 (configuration not stated)	14.2	7.8	9.2	11.4	100	93	43	57	100	64	52.5	0	10	40	25	100	90	36	0	6	Activity [1]: Active; inhibition at 20 µM [12]: 100%; PGI [24]: 100%; PGI [29]: 95%
C=C(C#N)C(O)c1ccc(OC)c(OC)c1 (configuration not stated)					100	42	5.26		71	21								0	0	0	inhibition at 500 µM [15]: 100%
C=C(C(=O)OC)C(O)c1ccccc1 (configuration not stated)	12	6	7	10.2	100	100	43	64	100	93	100	0	7.5	62.5	40	100	100	7	0	0	Activity [40]: inactive; inhibition at 20 µM [12]: 100%; PGI [24]: 100%; PGI [41]: 100%
C=C(C(=O)OC)C(O)/C=C(\C)CCC=C(C)C (configuration not stated)	11.4	7.2	8.4	9.6																	Activity [40]: inactive
C=C(C(=O)OC)C(O)c1ccco1 (configuration not stated)											85.7	0		42.8	20	100	98				PGI [30]: 100%
C=C(C(=O)OC)C(O)c1ccc([N+](=O)[O-])cc1 (configuration not stated)					81.6	44.7	2.6		52.6	18.4											inhibition at 500 µM [15]: 100%
C=C(C(=O)OC)C(O)c1cccnc1 (configuration not stated)					100	100	43	64	100	100	92.5	5	25	75	50	100	100	29	0	5	inhibition at 20 µM [12]: 100%; PGI [24]: 100%; PGI [41]: 100%
C=C(C#N)C(O)c1ccco1 (configuration not stated)											68.6		14	40	31.4	100	79				PGI [30]: 84%
C=C(C#N)C(O)c1ccc([N+](=O)[O-])cc1 (configuration not stated)	14.4	9.4	11.8	12.8	100	100	75.2	84	100	100	100	83	92	100	100	100	100	68	41.2	56.4	Activity [1]: Active; Activity [42]: Active; PGI [6]: 73%; PGI [7]: 82%; inhibition at 20 µM [12]: 100%; inhibition at 50 µM [13]: 100%; inhibition at 5 µM [14]: 100%; inhibition at 500 µM [15]: 100%; inhibition at 0.25 µM [18]: 58%; inhibition at 100 µM [19]: 100%; inhibition at 10 µM [20]: 100%; inhibition at 1 µM [21]: 86%; inhibition at 2.5 µM [22]: 100%; inhibition at 20 µM [23]: 100%; PGI [24]: 100%; PGI [29]: 100%; PGI [30]: 100%; PGI [35]: 94%; inhibition at 0.1 µM [37]: 47.7%; inhibition at 0.5 µM [39]: 75%
C=C(CCC(C)=O)C(C)=O					100	100	52.6		100	100	88.6			65.7	8.6	100	100				inhibition at 500 µM [15]: 100%; PGI [30]: 100%
C=C(C#N)C(O)/C=C(\C)CCC=C(C)C (configuration not stated)	11.6	7.3	8.6	9.8																	Activity [40]: inactive
